Like-named read-outs stand apart in the source and are kept apart here.
What was measured:
SR = assay: NCI-60 growth inhibition (sulforhodamine B); assay type: cell-based, human; details: SR (Leukemia), negative log of Molar conc., LCONC -8
HOP-62 = assay: NCI-60 growth inhibition (sulforhodamine B); assay type: cell-based, human
HOP-92 = assay: NCI-60 growth inhibition (sulforhodamine B); assay type: cell-based, human; details: HOP-92 (Non-Small Cell Lung Cancer), negative log of Molar conc., LCONC -8
NCI-H23 = assay: NCI-60 growth inhibition (sulforhodamine B); assay type: cell-based, human; details: NCI-H23 (Non-Small Cell Lung Cancer), negative log of Molar conc., LCONC -8
KM12 = assay: NCI-60 growth inhibition (sulforhodamine B); assay type: cell-based, human; details: KM12 (Colon Cancer), negative log of Molar conc., LCONC -8
SNB-75 = assay: NCI-60 growth inhibition (sulforhodamine B); assay type: cell-based, human; details: SNB-75 (CNS Cancer), negative log of Molar conc., LCONC -8
SK-MEL-5 = assay: NCI-60 growth inhibition (sulforhodamine B); assay type: cell-based, human; details: SK-MEL-5 (Melanoma), negative log of Molar conc., LCONC -8
UACC-257 = assay: NCI-60 growth inhibition (sulforhodamine B); assay type: cell-based, human; details: UACC-257 (Melanoma), negative log of Molar conc., LCONC -8
OVCAR-8 = assay: NCI-60 growth inhibition (sulforhodamine B); assay type: cell-based, human; details: OVCAR-8 (Ovarian Cancer), negative log of Molar conc., LCONC -8
CAKI-1 = assay: NCI-60 growth inhibition (sulforhodamine B); assay type: cell-based; details: Homo sapiens, CAKI-1, Renal Cancer, negative log of Molar value, LCONC -8, EXPID 2301NS84
TK-10 = assay: NCI-60 growth inhibition (sulforhodamine B); assay type: cell-based; details: Homo sapiens, TK-10, Renal Cancer, negative log of Molar value, LCONC -8, EXPID 2301NS84
PC-3 = assay: NCI-60 growth inhibition (sulforhodamine B); assay type: cell-based; details: Homo sapiens, PC-3, Prostate Cancer, negative log of Molar value, LCONC -8, EXPID 2301NS84
BT-549 = assay: NCI-60 growth inhibition (sulforhodamine B); assay type: cell-based; details: Homo sapiens, BT-549, Breast Cancer, negative log of Molar value, LCONC -8, EXPID 2301NS84
M14 = assay: cells; details: Homo sapiens
[1] = Homo sapiens, read-out: GI50 NLOGVALUE (converted)
[2] = Homo sapiens, read-out: IC50 NLOGVALUE (converted)
[3] = Homo sapiens, read-out: IC50 NLOGVALUE
[4] = Homo sapiens, read-out: LC50 NLOGVALUE
[5] = Homo sapiens, read-out: GI50 NLOGVALUE

Compound: C[C@H](CN[C@@H](C(=O)Nc1ccc(-c2cnn(C)c2)cn1)c1ccccc1)c1ccc(C#N)cc1 [CPI-1612]
- GI50 (SR; [1]): 1.86 µM
- IC50 (SR; [2]): 56.2 µM
- TGI NLOGVALUE (SR): 4
- TGI NLOGVALUE (HOP-62; HOP-62 (Non-Small Cell Lung Cancer), negative log of Molar conc., LCONC -8): 4
- GI50 (HOP-62; Homo sapiens, HOP-62, read-out: GI50 AVGDATA (converted)): 1.95 µM
- GI50 (HOP-62; Homo sapiens, HOP-62 (Non-Small Cell Lung Cancer), negative log of Molar conc., LCONC -8, read-out: GI50 NLOGVALUE (converted)): 1.91 µM
- IC50 (HOP-62; Homo sapiens, HOP-62 (Non-Small Cell Lung Cancer), negative log of Molar conc., LCONC -8, read-out: IC50 NLOGVALUE): > 100 µM
- CC50 (HOP-62; Homo sapiens, HOP-62 (Non-Small Cell Lung Cancer), negative log of Molar conc., LCONC -8, read-out: LC50 NLOGVALUE): > 100 µM
- TGI NLOGVALUE (HOP-92): 4
- GI50 (HOP-92; [1]): 1.62 µM
- IC50 (HOP-92; [3]): > 100 µM
- CC50 (HOP-92; [4]): > 100 µM
- GI50 (NCI-H23; [1]): 0.0331 µM
- IC50 (NCI-H23; [2]): 0.851 µM
- CC50 (NCI-H23; [4]): > 100 µM
- TGI NLOGVALUE (NCI-H23): 4
- GI50 (KM12; [1]): 0.204 µM
- IC50 (KM12; [2]): 3.24 µM
- CC50 (KM12; [4]): > 100 µM
- TGI NLOGVALUE (KM12): 4
- GI50 (SNB-75; [5]): > 100 µM
- IC50 (SNB-75; [3]): > 100 µM
- CC50 (SNB-75; [4]): > 100 µM
- TGI NLOGVALUE (SNB-75): 4
- GI50 (SK-MEL-5; [5]): < 0.01 µM
- IC50 (SK-MEL-5; [2]): 0.0263 µM
- CC50 (SK-MEL-5; [4]): > 100 µM
- TGI NLOGVALUE (SK-MEL-5): 4.48
- IC50 (UACC-257; [3]): > 100 µM
- CC50 (UACC-257; [4]): > 100 µM
- TGI NLOGVALUE (UACC-257): 4
- GI50 (OVCAR-8; [1]): 40.7 µM
- IC50 (OVCAR-8; [3]): > 100 µM
- CC50 (OVCAR-8; [4]): > 100 µM
- TGI NLOGVALUE (OVCAR-8): 4
- GI50 (CAKI-1; read-out: GI50 NLOGVALUE): < 0.01 µM
- CC50 (CAKI-1; read-out: LC50 NLOGVALUE): > 100 µM
- GI50 (TK-10; read-out: GI50 NLOGVALUE (converted)): 0.132 µM
- IC50 (TK-10; read-out: IC50 NLOGVALUE): > 100 µM
- CC50 (TK-10; read-out: LC50 NLOGVALUE): > 100 µM
- GI50 (PC-3; read-out: GI50 NLOGVALUE): < 0.01 µM
- IC50 (PC-3; read-out: IC50 NLOGVALUE (converted)): 0.447 µM
- CC50 (PC-3; read-out: LC50 NLOGVALUE): > 100 µM
- GI50 (BT-549; read-out: GI50 NLOGVALUE): > 100 µM
- IC50 (BT-549; read-out: IC50 NLOGVALUE): > 100 µM
- CC50 (BT-549; read-out: LC50 NLOGVALUE): > 100 µM
- GI50 (M14; M14, read-out: GI50 NLOGVALUE): 0.0214 µM
- IC50 (M14; M14, read-out: IC50 NLOGVALUE): 44.7 µM
- CC50 (M14; M14, read-out: LC50 NLOGVALUE): > 100 µM
